Measured values published in patent publication US9084424B2, “N-benzyl heterocyclic carboxamides” (BAYER INTELLECTUAL PROPERTY GMBH, priority 2010, dated 2015).

What was measured:
[1] = log P by HPLC on reversed-phase column (EEC Directive 79/831 Annex V.A8); assay type: physicochemical; details: 0.1% aqueous formic acid and acetonitrile, linear gradient 10% to 90% acetonitrile
Method: In table 1, the log P values were determined in accordance with EEC Directive 79/831 Annex V.A8 by HPLC (High Performance Liquid Chromatography) on a reversed-phase column (C 18), using the method described below: Temperature: 40° C.; Mobile phases: 0.1% aqueous formic acid and acetonitrile; linear gradient from 10% acetonitrile to 90% acetonitrile. Calibration was carried out using unbranched alkan-2-ones (comprising 3 to 16 carbon atoms) with known log P values (determination of the log P values by the retention times using linear interpolation between two successive alkanones). lambda-max-values were determined using UV-spectra from 200 nm to 400 nm and the peak values of the chromatographic signals.

Alternaria solani = experiment: In vivo preventive test on Alternaria solani (tomato); details: preventive spray, 500 ppm of active ingredient, evaluated 7 days after inoculation
Method: In Vivo Preventive Test on Alternaria Solani (Tomato)
(§1) Solvent: 49 parts by weight of N,N-dimethylformamide
(§2) Emulsifier: 1 part by weight of alkylarylpolyglycolether
(§3) To produce a suitable preparation of active compound, 1 part by weight of active compound is mixed with the stated amounts of solvent and emulsifier, and the concentrate is diluted with water to the desired concentration.
To test for preventive activity, young plants are sprayed with the preparation of active compound at the stated rate of application. One day after this treatment, the plants are inoculated with an aqueous spore suspension of Alternaria solani. The plants remain for one day in an incubation cabinet at approximately 22° C. and a relative atmospheric humidity of 100%. Then the plants are placed in an incubation cabinet at approximately 20° C. and a relative atmospheric humidity of 96%.
The test is evaluated 7 days after the inoculation. 0% means an efficacy which corresponds to that of the untreated control while an efficacy of 100% means that no disease is observed.

Sphaerotheca fuliginea = experiment: In vivo preventive test on Sphaerotheca fuliginea (cucumber); details: preventive spray, 500 ppm of active ingredient, evaluated 7 days after inoculation
Method: In Vivo Preventive Test on Sphaerotheca fuliginea (Cucumber)
as §1, §2, §3
To test for preventive activity, young plants are sprayed with the preparation of active compound at the stated rate of application. After the spray coating has dried on, the plants are inoculated with an aqueous spore suspension of Sphaerotheca fuliginea. The plants are then placed in a greenhouse at approximately 23° C. and a relative atmospheric humidity of approximately 70%.
The test is evaluated 7 days after the inoculation. 0% means an efficacy which corresponds to that of the untreated control, while an efficacy of 100% means that no disease is observed.

Pyrenophora teres = experiment: In vivo preventive test on Pyrenophora teres (barley); details: preventive spray, 500 ppm of active ingredient, evaluated 7-9 days after inoculation
Method: In Vivo Preventive Test on Pyrenophora teres (Barley)
Solvent: 49 parts by weight of N,N-dimethylacetamid
(§4) Emulsifier: 1 part by weight of alkylaryl polyglycol ether
as §3
(§5) To test for preventive activity, young plants are sprayed with the preparation of active compound at the stated rate of application. One day after this treatment, the plants are inoculated with an aqueous spore suspension of Pyrenophora teres. The plants remain for 48 hours in an incubation cabinet at 22° C. and a relative atmospheric humidity of 100%. Then the plants are placed in a greenhouse at a temperature of approximately 20° C. and a relative atmospheric humidity of approximately 80%.
The test is evaluated 7-9 days after the inoculation. 0% means an efficacy which corresponds to that of the untreated control while an efficacy of 100% means that no disease is observed.

Leptosphaeria nodorum = experiment: In vivo preventive test on Leptosphaeria nodorum (wheat); details: preventive spray, 500 ppm of active ingredient, evaluated 7-9 days after inoculation
Method: In Vivo Preventive Test on Leptosphaeria nodorum (Wheat)
Solvent: 49 parts by weight of N,N-dimethylacetamide
as §4, §3
as §5, with “with a” for “with the”, “of Leptosphaeria nodorum.” for “of Pyrenophora teres.”, “approximately 22°” for “approximately 20°”, “approximately 90%.” for “approximately 80%.”
The test is evaluated 7-9 days after the inoculation. 0% means an efficacy which corresponds to that of the untreated control, while an efficacy of 100% means that no disease is observed.
Under these conditions, good (at least 70%) to excellent protection (at least 95%) is observed at a dose of 500 ppm of active ingredient with the following compounds from table D: […]

[2] = HPLC, reversed-phase C 18, 40° C.
[3] = HPLC on reversed-phase column (C 18), 40° C.

SMILES | logP [1, 2] | Efficacy (Alternaria solani) [%] | Efficacy (Sphaerotheca fuliginea) [%] | Efficacy (Pyrenophora teres) [%] | logP [1, 3] | Efficacy (Leptosphaeria nodorum) [%]
Cn1nc(C(F)F)c(C(=O)NC(c2ccccc2Cl)C(F)(F)F)c1Cl (racemic) [Example 19] | 3.33 | 90 | 84 | – | – | –
CC(NC(=O)c1c(C(F)F)nn(C)c1Cl)c1ccccc1Cl (racemic) [Example 20] | 2.92 | 95 | 94 | 95 | – | –
CC(NC(=O)c1c(C(F)F)nn(C)c1F)c1ccccc1Cl (racemic) [Example 24] | 2.75 | 94 | 89 | 100 | – | –
CC(NC(=O)c1c(C(F)F)nn(C)c1F)c1ccc(OCc2ccccc2)cc1 (racemic) [Example 162] | – | 100 | 88 | 100 | 3.41 | –
CC(NC(=O)c1c(C(F)F)nn(C)c1F)c1ccc(-c2ccccc2)cc1 (racemic) [Example 169] | – | 94 | 89 | 100 | 3.46 | –
CC(NC(=O)c1c(C(F)F)nn(C)c1F)c1ncc(C(F)(F)F)cc1Cl (racemic) [Example 175] | – | 95 | 95 | 100 | 3.19 | –
CC(NC(=O)c1c(C(F)F)nn(C)c1Cl)c1ncc(C(F)(F)F)cc1Cl (racemic) [Example 177] | – | 90 | 93 | 100 | 3.48 | –
CCc1ccccc1CN(C(=O)c1c(C(F)F)nn(C)c1F)C1CCC1 [Example 12] | 3.63 | 90 | 95 | 100 | – | –
CCc1ccccc1CN(CC)C(=O)c1c(C(F)F)nn(C)c1F [Example 13] | 3.13 | 95 | 90 | 95 | – | –
CCc1ccccc1CN(C)C(=O)c1c(C(F)F)nn(C)c1F [Example 15] | 2.81 | 95 | 83 | 95 | – | –
C#CCN(Cc1ccccc1CC)C(=O)c1c(C(F)F)nn(C)c1F [Example 17] | 3.10 | 80 | 94 | 100 | – | –
Cn1nc(C(F)F)c(C(=O)NC(C)(C)c2ccccc2Cl)c1F [Example 26] | 2.92 | 94 | 88 | – | – | –
CC(NC(=O)c1c(C(F)F)nn(C)c1Cl)c1ccc(Cl)cc1Cl (stereo not shown) [Example 33] | 4.39 | 95 | 96 | 100 | – | –
CC(NC(=O)c1c(C(F)F)nn(C)c1F)c1ccc(Cl)cc1Cl (stereo not shown) [Example 36] | 4.39 | 94 | 93 | 100 | – | –
Cn1nc(C(F)F)c(C(=O)NC2(c3ccc(Cl)cc3Cl)CC2)c1F [Example 38] | 3.89 | 94 | 89 | 95 | – | –
Cn1nc(C(F)F)c(C(=O)NC(c2ccc(Cl)cc2Cl)C(F)(F)F)c1F (stereo not shown) [Example 40] | 4.19 | 94 | 83 | 95 | – | –
CC(NC(=O)c1c(C(F)F)nn(C)c1Cl)c1cc(Cl)ccc1Cl (stereo not shown) [Example 50] | 4.39 | 95 | 98 | 95 | – | –
CC(NC(=O)c1c(C(F)F)nn(C)c1F)c1cc(Cl)ccc1Cl (stereo not shown) [Example 53] | 4.39 | 94 | 95 | 95 | – | –
CC(c1cc(Cl)ccc1Cl)N(C)C(=O)c1c(C(F)F)nn(C)c1Cl (stereo not shown) [Example 55] | 3.33 | 95 | 83 | 100 | – | –

SMILES | logP [1, 2] | Efficacy (Alternaria solani) [%] | Efficacy (Sphaerotheca fuliginea) [%] | Efficacy (Pyrenophora teres) [%] | logP [1, 3] | Efficacy (Leptosphaeria nodorum) [%]
Cn1nc(C(F)F)c(C(=O)NCc2ccccc2C2CC2)c1F [Example 65] | 2.78 | 90 | 85 | 94 | – | –
CC(C)c1ccccc1CN(C(=O)c1c(C(F)F)nn(C)c1F)C1CCC1 [Example 70] | 3.90 | 90 | 100 | 100 | – | –
C=CCN(Cc1ccccc1C(C)C)C(=O)c1c(C(F)F)nn(C)c1F [Example 71] | 3.66 | 95 | 91 | 95 | – | –
C#CCN(Cc1ccccc1C(C)C)C(=O)c1c(C(F)F)nn(C)c1F [Example 73] | 3.37 | 95 | 98 | 100 | – | –
CC(C)c1ccccc1CN(C(=S)c1c(C(F)F)nn(C)c1F)C1CCC1 [Example 75] | 4.63 | – | 100 | 100 | – | –
CC(C)c1ccccc1CN(CC(F)F)C(=O)c1c(C(F)F)nn(C)c1F [Example 78] | 3.49 | 100 | 93 | 100 | – | –
CC(NC(=O)c1c(C(F)F)nn(C)c1Cl)c1ccccc1C(F)(F)F (stereo not shown) [Example 82] | 3.11 | 100 | 94 | 95 | – | –
CC(NC(=O)c1c(C(F)F)nn(C)c1F)c1ccccc1C(F)(F)F (stereo not shown) [Example 84] | 2.96 | 100 | 90 | 100 | – | –
CCN(Cc1c(Cl)cccc1C(F)(F)F)C(=O)c1c(C(F)F)nn(C)c1F [Example 91] | 3.22 | 100 | 95 | 95 | – | –
CN(Cc1ccccc1[Si](C)(C)C)C(=O)c1c(C(F)F)nn(C)c1F [Example 103] | 3.78 | 90 | 91 | 70 | – | –
Cn1nc(C(F)F)c(C(=O)NC2(c3cccc(C(F)(F)F)c3)CCCC2)c1F [Example 108] | – | – | 85 | 94 | 3.65 | –
Cn1nc(C(F)F)c(C(=O)NC(C)(C)c2cc(Cl)cc(Cl)c2)c1Cl [Example 112] | – | 80 | 95 | 95 | 3.73 | –
CC(c1cc(Cl)cc(Cl)c1)N(C)C(=O)c1c(C(F)F)nn(C)c1Cl (stereo not shown) [Example 116] | – | 95 | 75 | 100 | 3.65 | –
Cn1nc(C(F)F)c(C(=O)NC2(c3ccc(Cl)c(C(F)(F)F)c3)CC2)c1F [Example 125] | – | – | 100 | 95 | 3.27 | –
Cn1nc(C(F)F)c(C(=O)NCc2ccc(C(C)(C)C)cc2)c1F [Example 135] | – | – | – | – | 3.42 | 75
Cn1nc(C(F)F)c(C(=O)NCc2ccc(C(C)(C)C)cc2)c1Cl [Example 136] | – | – | – | – | 3.58 | 70
CCC(NC(=O)c1c(C(F)F)nn(C)c1Cl)c1ccc(Cl)cc1Cl (stereo not shown) [Example 191] | – | 95 | 100 | 100 | 3.79 | –
CCC(NC(=O)c1c(C(F)F)nn(C)c1F)c1ccc(Cl)cc1Cl (stereo not shown) [Example 192] | – | 95 | 100 | 100 | 3.61 | –
